In patent US20120101134A1, “5-MEMBERED HETEROARYL DERIVATIVES USED AS SPHINGOSINE 1-PHOSPHATE RECEPTOR AGONISTS” (GLAXO GROUP LIMITED, priority 2009, published 2012):

Molecular target: T1, human Endothelial Differentiation Gene 1 (EDG1) (Homo sapiens, UniProt P21453)
T1 construct: TEV protease site; Gal4-VP16 transcription factor; expressed in transfected cells; host or cells: EDG1-bla/U2OS (Tango GPCR-bla U2OS parental cell line)
Experiment: S1P1 Tango assay - 384 well format
Format: cell-based
Details: EDG1-bla/U2OS cells, agonist
Procedure: S1P1 Tango assay—384 Well Format
Recombinant EDG1-bla/U2OS cells (contain the human Endothelial Differentiation Gene 1 (EDG1) linked to a TEV protease site and a Gal4-VP16 transcription factor stably integrated into the Tango GPCR-bla U2OS parental cell line) were harvested from growth medium and passaged into assay medium (Invitrogen Freestyle Expression Medium). The cells were starved for 24 hours at 37° C., 5% CO2, harvested and resuspended in assay medium at a density of ˜200,000 cells/ml. All test compounds were dissolved in DMSO at a concentration of 10 mM and were prepared in 100% DMSO to provide 10 point dose response curves. Test compounds prepared by Bravo (Velocity11) were added to wells in columns 2-11 and 13-22; DMSO was added to wells in columns 12 and 23 as unstimulated controls and assay medium was added to wells in columns 1 and 24 as cell-free controls. An S1P1 agonist was added to wells in row 2, columns 2-11 as stimulated controls and test compounds were added to wells in row 2, columns 13-22 and rows 3-15, columns 2-11/13-22 (row 1 and 16 were empty and not used). Compounds in solution were added to the assay plate (Greiner 781090) using an Echo (Labcyte) dose-response program (50 nl/well). The unstimulated and cell-free controls were loaded with 50 nl/well pure DMSO to ensure that the DMSO concentration was constant across the plate for all assays.
50 μl of the cell suspension was added to each well in columns 2-23 of the plate (˜10,000 cells per well). 50 μl of assay medium was added to each well in the cell-free controls (columns 1 and 24). The cells were incubated overnight at 37° C./5% CO2.
10 μl of 6× substrate mixture (LiveBLAzer™-FRET B/G substrate (CCF4-AM) Cat #K1096 from Invitrogen, Inc.) was added to each well using Bravo and the plates incubated at room temperature for 2 h in the dark. The plate was finally read on EnVision using one excitation channel (409 nm) and two emission channels (460 nm and 530 nm).
The blue/green emission ratio (460 nm/530 nm) was calculated for each well, by dividing the background-subtracted Blue emission values by the background-subtracted Green emission values. The dose response curve is based on sigmoidal dose-response model. All ratio data was normalized based upon the maximum emission ratio of positive control and minimum emission ratio of negative control (DMSO) on each plate. The intrinsic activity (IA) of each compound would be the normalized percentage of its maximum response after curve fitting.

T1 sequence (P21453 whole entry, the tested form may be a part): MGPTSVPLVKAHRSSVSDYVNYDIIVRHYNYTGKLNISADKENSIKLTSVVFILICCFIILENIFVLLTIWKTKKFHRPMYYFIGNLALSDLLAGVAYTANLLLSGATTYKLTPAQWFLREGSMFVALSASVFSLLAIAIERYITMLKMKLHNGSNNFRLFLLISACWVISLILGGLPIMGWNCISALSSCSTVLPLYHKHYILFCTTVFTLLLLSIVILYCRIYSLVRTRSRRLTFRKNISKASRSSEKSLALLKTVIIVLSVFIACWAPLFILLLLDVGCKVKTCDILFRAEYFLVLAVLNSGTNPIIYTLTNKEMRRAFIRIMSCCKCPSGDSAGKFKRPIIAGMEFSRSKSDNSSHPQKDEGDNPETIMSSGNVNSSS

SMILES | EC50
COc1c(CCC(=O)O)cc(F)cc1-c1noc(-c2ccc(OC(C)C)c(C#N)c2)n1 [Example 30, 3-[3-(5-{3-cyano-4-[(1-methylethyl)oxy]phenyl}-1,2,4-oxadiazol-3-yl)-5-fluoro-2-(methyloxy)phenyl]propanoic acid] | ≤ 1 nM
COc1c(CCCC(=O)O)cc(F)cc1-c1noc(-c2ccc(OC(C)C)c(C#N)c2)n1 [Example 31, 4-[3-(5-{3-cyano-4-[(1-methylethyl)oxy]phenyl}-1,2,4-oxadiazol-3-yl)-5-fluoro-2-(methyloxy)phenyl]butanoic acid] | ≤ 1 nM
COc1c(CCCC(=O)O)cc(F)cc1-c1noc(-c2cnc(OC(C)C)c(Cl)c2)n1 [Example 32, 4-[3-(5-{5-chloro-6-[(1-methylethyl)oxy]-3-pyridinyl}-1,2,4-oxadiazol-3-yl)-5-fluoro-2-(methyloxy)phenyl]butanoic acid] | ≤ 10 nM
COc1c(CCC(=O)O)cc(F)cc1-c1noc(-c2cnc(OC(C)C)c(Cl)c2)n1 [Example 33, 3-[3-(5-{5-chloro-6-[(1-methylethyl)oxy]-3-pyridinyl}-1,2,4-oxadiazol-3-yl)-5-fluoro-2-(methyloxy)phenyl]propanoic acid] | ≤ 100 nM
COc1c(CCC(=O)O)cc(F)cc1-c1noc(-c2ccc(OC(C)C)c(Cl)c2)n1 [Example 34, 3-[3-(5-{3-chloro-4-[(1-methylethyl)oxy]phenyl}-1,2,4-oxadiazol-3-yl)-5-fluoro-2-(methyloxy)phenyl]propanoic acid] | ≤ 10 nM
COc1c(CCCC(=O)O)cc(F)cc1-c1noc(-c2ccc(OC(C)C)c(Cl)c2)n1 [Example 35, 4-[3-(5-{3-chloro-4-[(1-methylethyl)oxy]phenyl}-1,2,4-oxadiazol-3-yl)-5-fluoro-2-(methyloxy)phenyl]butanoic acid] | ≤ 1 nM
CCCc1c(CCCC(=O)O)cccc1-c1noc(-c2ccc(OC(C)C)c(Cl)c2)n1 [Example 36, 4-[3-(5-{3-chloro-4-[(1-methylethyl)oxy]phenyl}-1,2,4-oxadiazol-3-yl)-2-propylphenyl]butanoic acid] | ≤ 10 nM
CCCc1c(CCCC(=O)O)cccc1-c1noc(-c2ccc(OC(C)C)c(C#N)c2)n1 [Example 37, 4-[3-(5-{3-cyano-4-[(1-methylethyl)oxy]phenyl}-1,2,4-oxadiazol-3-yl)-2-propylphenyl]butanoic acid] | ≤ 10 nM
CCc1c(OCCCC(=O)O)cccc1-c1noc(-c2ccc(OC(C)C)c(C#N)c2)n1 [Example 38, 4-{[3-(5-{3-cyano-4-[(1-methylethyl)oxy]phenyl}-1,2,4-oxadiazol-3-yl)-2-ethylphenyl]oxy}butanoic acid] | ≤ 10 nM
CCc1c(OCCCC(=O)O)cccc1-c1noc(-c2ccc(OC(C)C)c(Cl)c2)n1 [Example 39, 4-{[3-(5-{3-chloro-4-[(1-methylethyl)oxy]phenyl}-1,2,4-oxadiazol-3-yl)-2-ethylphenyl]oxy}butanoic acid] | ≤ 1 nM
CCc1c(OCC(=O)O)cccc1-c1noc(-c2ccc(OC(C)C)c(C#N)c2)n1 [Example 40, {[3-(5-{3-cyano-4-[(1-methylethyl)oxy]phenyl}-1,2,4-oxadiazol-3-yl)-2-ethylphenyl]oxy}acetic acid] | ≤ 10 nM
CCc1c(CCCC(=O)O)cccc1-c1nnc(-c2ccc(OC(C)C)c(C#N)c2)o1 [Example 41, 4-[3-(5-{3-cyano-4-[(1-methylethyl)oxy]phenyl}-1,3,4-oxadiazol-2-yl)-2-ethylphenyl]butanoic acid] | ≤ 10 nM
CCc1c(CNCCC(=O)O)cccc1-c1nsc(-c2ccc(OC(C)C)c(C#N)c2)n1 [Example 48, N-{[3-(5-{3-cyano-4-[(1-methylethyl)oxy]phenyl}-1,2,4-thiadiazol-3-yl)-2-ethylphenyl]methyl}-b-alanine] | ≤ 10 nM
CCc1c(CCN(C)CC(=O)O)cccc1-c1nsc(-c2ccc(OC(C)C)c(Cl)c2)n1 [Example 49, N-{2-[3-(5-{3-chloro-4-[(1-methylethyl)oxy]phenyl}-1,2,4-thiadiazol-3-yl)-2-ethylphenyl]ethyl}-N-methylglycine] | ≤ 1 nM
CCc1c(CCCC(=O)O)cccc1-c1cnc(-c2ccc(OC(C)C)c(C#N)c2)s1 [Example 50, 4-[3-(2-{3-cyano-4-[(1-methylethyl)oxy]phenyl}-1,3-thiazol-5-yl)-2-ethylphenyl]butanoic acid] | ≤ 10 nM
COc1c(CCCC(=O)O)cc(F)cc1-c1cnc(-c2ccc(OC(C)C)c(C#N)c2)s1 [Example 51, 4-[3-(2-{3-cyano-4-[(1-methylethyl)oxy]phenyl}-1,3-thiazol-5-yl)-5-fluoro-2-(methyloxy)phenyl]butanoic acid] | ≤ 10 nM
CCc1c(CCCC(=O)O)cccc1-c1cnc(-c2ccc(OC(C)C)c(Cl)c2)s1 [Example 52, 4-[3-(2-{3-chloro-4-[(1-methylethyl)oxy]phenyl}-1,3-thiazol-5-yl)-2-ethylphenyl]butanoic acid] | ≤ 10 nM

The remaining lines, values ahead:

EC50 | SMILES
≤ 10 nM | CCc1c(CCN(C)CC(=O)O)cccc1-c1cnc(-c2ccc(OC(C)C)c(C#N)c2)s1 [Example 53, N-{2-[3-(2-{3-cyano-4-[(1-methylethyl)oxy]phenyl}-1,3-thiazol-5-yl)-2-ethylphenyl]ethyl}-N-methylglycine]
≤ 1000 nM | CCc1c(CN(C)CC(=O)O)cccc1-c1cnc(-c2ccc(OC(C)C)c(Cl)c2)s1 [Example 54, N-{[3-(2-{3-chloro-4-[(1-methylethyl)oxy]phenyl}-1,3-thiazol-5-yl)-2-ethylphenyl]methyl}-N-methylglycine]
≤ 100 nM | CCc1c(CN(C)CC(=O)O)cccc1-c1cnc(-c2ccc(OC(C)C)c(C#N)c2)s1 [Example 55, N-{[3-(2-{3-cyano-4-[(1-methylethyl)oxy]phenyl}-1,3-thiazol-5-yl)-2-ethylphenyl]methyl}-N-methylglycine]
≤ 10 nM | CCc1c(CCN(C)CC(=O)O)cccc1-c1cnc(-c2ccc(OC(C)C)c(Cl)c2)s1 [Example 56, N-{2-[3-(2-{3-chloro-4-[(1-methylethyl)oxy]phenyl}-1,3-thiazol-5-yl)-2-ethylphenyl]ethyl}-N-methylglycine]
≤ 100 nM | CCc1c(CN(C)CCC(=O)O)cccc1-c1cnc(-c2ccc(OC(C)C)c(C#N)c2)s1 [Example 57, N-{[3-(2-{3-cyano-4-[(1-methylethyl)oxy]phenyl}-1,3-thiazol-5-yl)-2-ethylphenyl]methyl}-N-methyl-β-alanine]
≤ 1000 nM | CCc1c(-c2cnc(-c3ccc(OC(C)C)c(C#N)c3)s2)ccnc1CCCC(=O)O [Example 58, 4-[4-(2-{3-cyano-4-[(1-methylethyl)oxy]phenyl}-1,3-thiazol-5-yl)-3-ethyl-2-pyridinyl]butanoic acid]
≤ 1 nM | CCc1c(CCN(C)CCC(=O)O)cccc1-c1cnc(-c2ccc(OC(C)C)c(C#N)c2)s1 [Example 59, N-{2-[3-(2-{3-cyano-4-[(1-methylethyl)oxy]phenyl}-1,3-thiazol-5-yl)-2-ethylphenyl]ethyl}-N-methyl-b-alanine]
